# In ChEMBL document CHEMBL3885861, “Open TG-GATES”:
# Species on record: Rattus norvegicus
# Test: Open TG-GATES - Regimen: Daily Repeat
# Type: toxicity, organism-based, Sprague-Dawley
# Set-up: regimen Daily Repeat, gender Male, age 6 weeks
# Settings: in vivo, po, 100 mg/kg, route gavage, dose level High; for APTT / Bas / Eos / Fbg / Hb / Ht / Lym / MCH / MCHC / MCV / Mono / Neu / Plat / RBC / Ret / WBC: tissue Blood; for KIDNEY_L / KIDNEY_R / KIDNEY_TOTAL: tissue Kidney; for ALP / ALT / AST / BUN / CRE / DBIL / GLC / IP / K / LDH / Na / PL / RALB / TBIL / TC / TG / TP / gamma-GTP: tissue Plasma
smiles,measurement,setting,value
CN(C)CCC=C1c2ccccc2COc2ccccc21 [DOXEPIN],TERMINAL_BW,"72 h, time 3 day",208.5 g
same,APTT,"72 h, time 3 day",18.1 s
same,Bas,"72 h, time 3 day",0%
same,Eos,"72 h, time 3 day",1.2%
same,Fbg,"72 h, time 3 day",285 mg/dL
same,Hb,"72 h, time 3 day",13.6 g/dL
same,Ht,"72 h, time 3 day",39.2%
same,Lym,"72 h, time 3 day",78%
same,MCH,"72 h, time 3 day",21.3 pg
same,MCHC,"72 h, time 3 day",34.7%
same,MCV,"72 h, time 3 day",61.5 fL
same,Mono,"72 h, time 3 day",3.2%
same,Neu,"72 h, time 3 day",17.2%
same,Plat,"72 h, time 3 day",113.2 x10_4/uL
same,RBC,"72 h, time 3 day",637.4 x10_4/ul
same,Ret,"72 h, time 3 day",6.3%
same,WBC,"72 h, time 3 day",77.5 x10_2/uL
same,KIDNEY_L,"72 h, time 3 day",0.9 g
same,KIDNEY_R,"72 h, time 3 day",0.9 g
same,KIDNEY_TOTAL,"72 h, time 3 day",1.8 g
same,ALP,"72 h, time 3 day",1907.8 IU/L
same,ALT,"72 h, time 3 day",51 IU/L
same,AST,"72 h, time 3 day",75.4 IU/L
same,BUN,"72 h, time 3 day",16.6 mg/dL
same,CRE,"72 h, time 3 day",0.2 mg/dL
same,DBIL,"72 h, time 3 day",0.014 mg/dL
same,GLC,"72 h, time 3 day",196.2 mg/dL
same,IP,"72 h, time 3 day",8.4 mg/dL
same,K,"72 h, time 3 day",4.2 meq/L
same,LDH,"72 h, time 3 day",86 IU/L
same,Na,"72 h, time 3 day",142.6 meq/L
same,PL,"72 h, time 3 day",145.2 mg/dL
same,RALB,"72 h, time 3 day",2.7 g/dL
same,TBIL,"72 h, time 3 day",0.038 mg/dL
same,TC,"72 h, time 3 day",85.4 mg/dL
same,TG,"72 h, time 3 day",58.2 mg/dL
same,TP,"72 h, time 3 day",5.7 g/dL
same,gamma-GTP,"72 h, time 3 day",1.2 IU/L
same,TERMINAL_BW,"[…], time 7 day",235 g
same,TERMINAL_BW,"[…], time 14 day",276.3 g
same,TERMINAL_BW,"[…], time 28 day",344.8 g
same,APTT,"[…], time 7 day",16.4 s
same,Bas,"[…], time 7 day",0%
same,Eos,"[…], time 7 day",1.2%
same,Fbg,"[…], time 7 day",311.4 mg/dL
same,Hb,"[…], time 7 day",14 g/dL
same,Ht,"[…], time 7 day",40.1%
same,Lym,"[…], time 7 day",75.6%
same,MCH,"[…], time 7 day",21.1 pg
same,MCHC,"[…], time 7 day",34.9%
same,MCV,"[…], time 7 day",60.4 fL
same,Mono,"[…], time 7 day",2.8%
same,Neu,"[…], time 7 day",20.2%
same,Plat,"[…], time 7 day",106.3 x10_4/uL
same,RBC,"[…], time 7 day",665.6 x10_4/ul
same,Ret,"[…], time 7 day",5.1%
same,WBC,"[…], time 7 day",94.7 x10_2/uL
same,APTT,"[…], time 14 day",17.9 s
same,Bas,"[…], time 14 day",0%
same,Eos,"[…], time 14 day",1%
same,Fbg,"[…], time 14 day",284.2 mg/dL
same,Hb,"[…], time 14 day",14.7 g/dL
same,Ht,"[…], time 14 day",42.7%
same,Lym,"[…], time 14 day",77.6%
same,MCH,"[…], time 14 day",20.2 pg
same,MCHC,"[…], time 14 day",34.6%
same,MCV,"[…], time 14 day",58.4 fL
same,Mono,"[…], time 14 day",3.2%
same,Neu,"[…], time 14 day",17.6%
same,Plat,"[…], time 14 day",101.4 x10_4/uL
same,RBC,"[…], time 14 day",731 x10_4/ul
same,Ret,"[…], time 14 day",3.8%
same,WBC,"[…], time 14 day",106 x10_2/uL
same,APTT,"[…], time 28 day",20.2 s
same,Bas,"[…], time 28 day",0%
same,Eos,"[…], time 28 day",1.2%
same,Fbg,"[…], time 28 day",290.6 mg/dL
same,Hb,"[…], time 28 day",16.2 g/dL
same,Ht,"[…], time 28 day",45.8%
same,Lym,"[…], time 28 day",78.8%
same,MCH,"[…], time 28 day",19.9 pg
same,MCHC,"[…], time 28 day",35.4%
same,MCV,"[…], time 28 day",56.2 fL
same,Mono,"[…], time 28 day",1.8%
same,Neu,"[…], time 28 day",17.8%
same,Plat,"[…], time 28 day",100.9 x10_4/uL
same,RBC,"[…], time 28 day",815.6 x10_4/ul
same,Ret,"[…], time 28 day",2.3%
same,WBC,"[…], time 28 day",90.5 x10_2/uL
same,KIDNEY_L,"[…], time 7 day",1 g
same,KIDNEY_R,"[…], time 7 day",1 g
same,KIDNEY_TOTAL,"[…], time 7 day",2 g
same,KIDNEY_L,"[…], time 14 day",1.1 g
same,KIDNEY_R,"[…], time 14 day",1.1 g
same,KIDNEY_TOTAL,"[…], time 14 day",2.2 g
same,KIDNEY_L,"[…], time 28 day",1.3 g
same,KIDNEY_R,"[…], time 28 day",1.3 g
same,KIDNEY_TOTAL,"[…], time 28 day",2.6 g
same,ALP,"[…], time 7 day",1566.6 IU/L
same,ALT,"[…], time 7 day",44.8 IU/L
same,AST,"[…], time 7 day",72.4 IU/L
same,BUN,"[…], time 7 day",17.4 mg/dL
same,CRE,"[…], time 7 day",0.2 mg/dL
same,DBIL,"[…], time 7 day",0.018 mg/dL
same,GLC,"[…], time 7 day",193 mg/dL
same,IP,"[…], time 7 day",7.9 mg/dL
same,K,"[…], time 7 day",4.1 meq/L
same,LDH,"[…], time 7 day",88.8 IU/L
same,Na,"[…], time 7 day",142 meq/L
same,PL,"[…], time 7 day",145 mg/dL
same,RALB,"[…], time 7 day",2.8 g/dL
same,TBIL,"[…], time 7 day",0.036 mg/dL
same,TC,"[…], time 7 day",77 mg/dL
same,TG,"[…], time 7 day",116.8 mg/dL
same,TP,"[…], time 7 day",6 g/dL
same,gamma-GTP,"[…], time 7 day",1.8 IU/L
same,ALP,"[…], time 14 day",1470 IU/L
same,ALT,"[…], time 14 day",46.2 IU/L
same,AST,"[…], time 14 day",71.4 IU/L
same,BUN,"[…], time 14 day",17.8 mg/dL
same,CRE,"[…], time 14 day",0.2 mg/dL
same,DBIL,"[…], time 14 day",0.012 mg/dL
same,GLC,"[…], time 14 day",179.8 mg/dL
same,IP,"[…], time 14 day",8.1 mg/dL
same,K,"[…], time 14 day",4.3 meq/L
same,LDH,"[…], time 14 day",53.8 IU/L
same,Na,"[…], time 14 day",142.8 meq/L
same,PL,"[…], time 14 day",141.6 mg/dL
same,RALB,"[…], time 14 day",2.7 g/dL
same,TBIL,"[…], time 14 day",0.022 mg/dL
same,TC,"[…], time 14 day",76 mg/dL
same,TG,"[…], time 14 day",106.6 mg/dL
same,TP,"[…], time 14 day",6 g/dL
same,gamma-GTP,"[…], time 14 day",1.2 IU/L
same,ALP,"[…], time 28 day",1314.6 IU/L
same,ALT,"[…], time 28 day",46.8 IU/L
same,AST,"[…], time 28 day",68.6 IU/L
same,BUN,"[…], time 28 day",17.2 mg/dL
same,CRE,"[…], time 28 day",0.2 mg/dL
same,DBIL,"[…], time 28 day",0.018 mg/dL
same,GLC,"[…], time 28 day",181 mg/dL
same,IP,"[…], time 28 day",6.6 mg/dL
same,K,"[…], time 28 day",4.1 meq/L
same,LDH,"[…], time 28 day",83.4 IU/L
same,Na,"[…], time 28 day",144.2 meq/L
same,PL,"[…], time 28 day",139.6 mg/dL
same,RALB,"[…], time 28 day",3 g/dL
same,TBIL,"[…], time 28 day",0.028 mg/dL
same,TC,"[…], time 28 day",79.2 mg/dL
same,TG,"[…], time 28 day",74.6 mg/dL
same,TP,"[…], time 28 day",6.4 g/dL
same,gamma-GTP,"[…], time 28 day",1 IU/L
